pKi: −log10 of the molar value.
Key:
h-GABA-A α5β3γ2 [1] = biological target: T1, h-GABA-A α5β3γ2 (Homo sapiens, UniProt P18507+P31644); assay: [3H]flumazenil competition binding assay, membranes of HEK293 cells expressing GABAA receptors; conditions: displacement of [3H]-Flumazenil 0.5 nM, HEK293 cells expressing human receptors, mean of two determinations; Table 1
Summary of the method: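 Receptor source: human α5β3γ2 transiently transfected into HEK293 cells, membranes in pH 7.5 Krebs-tris. Filtration through GF/C, then scintillation counting.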

h-GABA-A α5β3γ2 [2] = biological target: T1, h-GABA-A α5β3γ2; assay: Two-electrode voltage clamp electrophysiology in Xenopus laevis oocytes expressing GABAA receptors, modulation of GABA EC20 current; assay type: cell-based; set-up: host or cells: Xenopus laevis oocytes micro-injected with RNA transcripts of the subunits; conditions: Table 1; for Efficacy (GABA) %: % modulation of GABA EC20 = 100*(Fold increase-1); for Fold increase h-GABA-A α5β3γ2 oocyte: test compound at approx. 30 fold its Ki, GABA at EC20
Summary of the method: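 Modulation is reported as % of the GABA EC20 current, calculated as 100*(Fold increase−1) from the peak ratio between a second GABA response carrying compound (applied at roughly 30-fold Ki) and a preceding control response. Oocytes expressing human α5β3γ2 were clamped at −80 mV at room temperature, 3–5 days after injection.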

Structure (SMILES) | pKi (h-GABA-A α5β3γ2 [1]) | Efficacy (GABA) % (h-GABA-A α5β3γ2 [2]) [%] | Fold increase h-GABA-A α5β3γ2 oocyte (h-GABA-A α5β3γ2 [2])
Cc1ccc(-c2noc(C)c2Cn2ncc(-c3ccccc3)cc2=O)cn1 [Example 67, 2-((5-methyl-3-(6-methylpyridin-3-yl)isoxazol-4-yl)methyl)-5-phenylpyridazin-3(2H)-one] | 7.98 | 107 | 2.07
Cc1ccc(-c2noc(C)c2Cn2ncc(-c3ccc(F)cc3)cc2=O)cn1 [Example 68, 5-(4-fluorophenyl)-2-[[5-methyl-3-(6-methylpyridin-3-yl)-1,2-oxazol-4-yl]methyl]pyridazin-3-one] | 7.92 | 71 | 1.71
Cc1ccc(-c2noc(C)c2Cn2ncc(N3CC4(CCC4)C3)cc2=O)cn1 [Example 69, 5-(2-azaspiro[3.3]heptan-2-yl)-2-[[5-methyl-3-(6-methyl-3-pyridyl)isoxazol-4-yl]methyl]pyridazin-3-one] | 7.41 | 155 | 2.55
Cc1ccc(-c2noc(C)c2Cn2ncc(N(C)CC(C)(C)O)cc2=O)cn1 [Example 70, 5-((2-hydroxy-2-methylpropyl)(methyl)amino)-2-((5-methyl-3-(6-methylpyridin-3-yl)isoxazol-4-yl)methyl)pyridazin-3(2H)-one] | 9.22 | 106 | 2.06
C[C@@H]1CN(c2cnn(Cc3conc3-c3ccc(C(F)(F)F)nc3)c(=O)c2)C[C@H](C)O1 [Example 72, 5-(cis-2,6-dimethylmorpholin-4-yl)-2-[[3-[6-(trifluoromethyl)-3-pyridyl]isoxazol-4-yl]methyl]pyridazin-3-one] | 7.40 | 167 | 2.67
Cc1ccc(-c2noc(C)c2Cn2ncc(N3CCNC4(CC4)C3)cc2=O)cn1 [Example 74, 5-(4,7-diazaspiro[2.5]octan-7-yl)-2-[[5-methyl-3-(6-methyl-3-pyridyl)isoxazol-4-yl]methyl]pyridazin-3-one] | 9.40 | 132 | 2.32
Cc1ccc(-c2noc(C)c2Cn2ncc(N3CCNCC3)cc2=O)cn1 [Example 75, 2-[[5-methyl-3-(6-methyl-3-pyridyl)isoxazol-4-yl]methyl]-5-piperazin-1-yl-pyridazin-3-one] | 8.44 | 104 | 2.04
COc1ccc(-c2cnn(Cc3c(-c4ccc(C)nc4)noc3C)c(=O)c2)cc1 [Example 76, 5-(4-methoxyphenyl)-2-[[5-methyl-3-(6-methylpyridin-3-yl)-1,2-oxazol-4-yl]methyl]pyridazin-3-one] | 8.19 | 71 | 1.71
Cc1ccc(-c2noc(C)c2Cn2ncc(N3CC4(CNC4)C3)cc2=O)cn1 [Example 77, 5-(2,6-diazaspiro[3.3]heptan-2-yl)-2-[[5-methyl-3-(6-methyl-3-pyridyl)isoxazol-4-yl]methyl]pyridazin-3-one] | 7.52 | 149 | 2.49
CNc1cnn(Cc2c(-c3ccc(C)nc3)noc2C)c(=O)c1 [Example 78, 2-((5-methyl-3-(6-methylpyridin-3-yl)isoxazol-4-yl)methyl)-5-(methylamino)pyridazin-3(2H)-one] | 7.19 | 92 | 1.92
CCOc1ccc(-c2cnn(Cc3c(-c4ccc(C)nc4)noc3C)c(=O)c2)cc1 [Example 79, 5-(4-ethoxyphenyl)-2-((5-methyl-3-(6-methylpyridin-3-yl)isoxazol-4-yl)methyl)pyridazin-3(2H)-one] | 7.79 | 111 | 2.11
COc1ccc(-c2cnn(Cc3c(-c4ccc(C)nc4)noc3C)c(=O)c2)cc1F [Example 80, 5-(3-fluoro-4-methoxyphenyl)-2-((5-methyl-3-(6-methylpyridin-3-yl)isoxazol-4-yl)methyl)pyridazin-3(2H)-one] | 8.07 | 133 | 2.33
COc1ccc(-c2cnn(Cc3c(-c4ccc(C)nc4)noc3C)c(=O)c2)cn1 [Example 81, 5-(6-methoxypyridin-3-yl)-2-((5-methyl-3-(6-methylpyridin-3-yl)isoxazol-4-yl)methyl)pyridazin-3(2H)-one] | 7.62 | 123 | 2.23
Cc1ccc(-c2noc(C)c2Cn2ncc(N3CC4(CN(C)C4)C3)cc2=O)cn1 [Example 82, 5-(6-methyl-2,6-diazaspiro[3.3]heptan-2-yl)-2-[[5-methyl-3-(6-methyl-3-pyridyl)isoxazol-4-yl]methyl]pyridazin-3-one] | 7.48 | 245 | 3.45
Cc1ccc(-c2noc(C)c2Cn2ncc(-c3ccc(C(F)(F)F)cc3)cc2=O)cn1 [Example 83] | 7.76 | 50 | 1.5
COc1ccc(-c2cnn(Cc3c(-c4ccc(C)nc4)noc3C)c(=O)c2)nc1 [Example 84, 5-(5-methoxypyridin-2-yl)-2-((5-methyl-3-(6-methylpyridin-3-yl)isoxazol-4-yl)methyl)pyridazin-3(2H)-one] | 7.07 | 89 | 1.89
Cc1ccc(-c2noc(C)c2Cn2ncc(N3CC(C#N)C3)cc2=O)cn1 [Example 85, 1-[1-[[5-methyl-3-(6-methyl-3-pyridyl)isoxazol-4-yl]methyl]-6-oxo-pyridazin-4-yl]azetidine-3-carbonitrile] | 7.74 | 134 | 2.34
Cc1onc(-c2ccc(Cl)cn2)c1Cn1ncc(N2CC3(C2)CN(C2CC2)C3)cc1=O [Example 86, 2-[[3-(5-chloro-2-pyridyl)-5-methyl-isoxazol-4-yl]methyl]-5-(2-cyclopropyl-2,6-diazaspiro[3.3]heptan-6-yl)pyridazin-3-one] | 7.92 | 87 | 1.87
Cc1cc(-c2noc(C)c2Cn2ncc(N3CC4(C3)CN(C3CC3)C4)cc2=O)no1 [Example 87, 5-(2-cyclopropyl-2,6-diazaspiro[3.3]heptan-6-yl)-2-[[5-methyl-3-(5-methylisoxazol-3-yl)isoxazol-4-yl]methyl]pyridazin-3-one] | 7.41 | 105 | 2.05
Cc1ccc(-c2noc(C)c2Cn2ncc(NCC3CCOCC3)cc2=O)cn1 [Example 88, 2-((5-methyl-3-(6-methylpyridin-3-yl)isoxazol-4-yl)methyl)-5-(((tetrahydro-2H-pyran-4-yl)methyl)amino)pyridazin-3(2H)-one] | 7.48 | 103 | 2.03
Cc1ccc(-c2noc(C)c2Cn2ncc(N3CCO[C@@H](C)C3)cc2=O)cn1 [Example 89, 2-[[5-methyl-3-(6-methyl-3-pyridyl)isoxazol-4-yl]methyl]-5-[(2S)-2-methylmorpholin-4-yl]pyridazin-3-one] | 8.85 | 189 | 2.89
Cc1ccc(-c2noc(C)c2Cn2ncc(N3CC[C@@H](OC(C)(C)C)C3)cc2=O)cn1 [Example 90, 5-[(3R)-3-tert-butoxypyrrolidin-1-yl]-2-[[5-methyl-3-(6-methyl-3-pyridyl)isoxazol-4-yl]methyl]pyridazin-3-one] | 7.61 | 109 | 2.09
Cc1ccc(-c2nocc2Cn2ncc(N3CCO[C@@H](C)C3)cc2=O)cn1 [Example 91, 5-[(2S)-2-methylmorpholin-4-yl]-2-[[3-(6-methyl-3-pyridyl)isoxazol-4-yl]methyl]pyridazin-3-one] | 7.66 | 157 | 2.57
Cc1ccc(-c2nocc2Cn2ncc(N3CCO[C@H](C)C3)cc2=O)cn1 [Example 92, 5-[(2R)-2-methylmorpholin-4-yl]-2-[[3-(6-methyl-3-pyridyl)isoxazol-4-yl]methyl]pyridazin-3-one] | 7.59 | 167 | 2.67
Cc1ccc(-c2noc(C)c2Cn2ncc(N3C[C@@H](C)N[C@@H](C)C3)cc2=O)cn1 [Example 93, 5-[(3R,5S)-3,5-dimethylpiperazin-1-yl]-2-[[5-methyl-3-(6-methyl-3-pyridyl)isoxazol-4-yl]methyl]pyridazin-3-one] | 8.80 | 125 | 2.25
Cc1ccc(-c2noc(C)c2Cn2ncc(N3CC(Oc4ccccc4)C3)cc2=O)cn1 [Example 94, 2-[[5-methyl-3-(6-methyl-3-pyridyl)isoxazol-4-yl]methyl]-5-(3-phenoxyazetidin-1-yl)pyridazin-3-one] | 8.11 | 136 | 2.36
Cc1ccc(-c2noc(C)c2Cn2ncc(N3CC4(CCCO4)C3)cc2=O)cn1 [Example 95, 2-[[5-methyl-3-(6-methyl-3-pyridyl)isoxazol-4-yl]methyl]-5-(5-oxa-2-azaspiro[3.4]octan-2-yl)pyridazin-3-one] | 7.51 | 115 | 2.15

From patent US11840528B2 (Hoffmann-La Roche Inc., priority 2018, dated 2023)
